Patent US7524849B2, “5-arylpyrimidines as anticancer agents” (Wyeth Holdings Corporation, priority 2003, dated 2009)

Columns and labels:
COLO 205 cells = test: MTS cytotoxicity test with COLO 205 cells; format: cell-based, human; settings: three days with compound
Procedure: (§1) The assay, which is sold in kit form by Promega (Madison, Wis.; CellTiter 96 AQueous Non-Radioactive Cell Proliferation Assay), is based on the conversion by viable cells, but not by dead cells, of the tetrazolium salt, MTS (3-(4,5-dimethylthiazol-2-yl)-5-(3-carboxymethoxyphenyl)-2-(4-sulphophenyl)-2H-tetrazolium, inner salt), into a water-soluble colored formazan which is detected by spectrophotometry. Compounds are tested at nine concentrations, in order to determine IC50 values. For the test procedure, cells are harvested by trypsinization, washed, counted and distributed to wells of 96-well flat-bottom microtiter plates at 1000 cells per well in 200 μL of medium. In addition, one row of wells on a separate plate receives cells as above (“time 0” plate). All plates are incubated at 37° in humidified 5% CO2 in air for about 24 hr.
On day 2, compounds for test are diluted and added to wells. Compounds are dissolved in DMSO at 10 mg/mL. For each compound, nine serial 2-fold dilutions are prepared in DMSO. Ten μL of each dilution in DMSO are transferred to 100 μL of medium, mixed well, and then 5 μL of this dilution are transferred in quadruplicate to wells containing cells. The final high concentration of each compound is typically 5 μM. Plates are returned to the incubator for three days. At the time of drug addition to the experimental plates, the MTS assay is run on the “time 0” plate. This produces the “time 0 MTS value” which is related to the number of viable cells per well at the time of drug addition.
After three days of culture with test compounds (day 5 overall), the MTS assay is done on all wells of the experimental plates. The absorbance values of the quadruplicate sample wells are averaged and divided by the average of the “time 0” values. The average of control wells without drug, divided by the average “time 0” value, gives the maximal relative increase in MTS color yield due to cell growth during the final three days of culture. The average of control wells with high drug concentration, divided by the “time 0” value, gives the minimal relative color yield for cells that were completely killed. The nine values for each compound are plotted against concentration, and the concentration that produces a relative color yield half way between the maximum and minimum is taken as the IC50 value.
COLO 205 is a human colon carcinoma cell line that is used for comparative testing of the examples of this invention and several reference compounds. This line is sensitive to paclitaxel and vincristine.

[1] = test system: highly purified tubulin (tubulin heterodimer); test: Competitive binding test, [3H]vinblastine; design: species or system bovine; settings: competitor 100 μM, [3H]vinblastine 100 nM, percent of binding to control without competitor
Procedure: (§2) Medium is RPMI-1640 with L-glutamine, supplemented with 10% heat-inactivated fetal calf serum, 100 units/mL penicillin, and 100 μg/mL streptomycin (Gibco, Grand Island, N.Y.). Microtubule-associated protein (MAP)-rich tubulin, containing about 70% tubulin and 30% MAPs (#ML113), and highly purified tubulin (>99% pure, #TL238), both from bovine brain, are obtained from Cytoskeleton, Inc., Denver, Colo. PEM buffer (80 mM piperazine-N,N′-bis[2-ethanesulfonic acid], pH 6.9, 1 mM ethylene glycol-bis(β-aminoethyl ether)-N,N,N′,N′-tetraacetic acid, 1 mM magnesium chloride) and guanosine 5′-triphosphate (GTP) are also obtained from Cytoskeleton. […] [^3H]vinblastine, specific activity 9.60 Ci/mmol and MicroSpin G-50 columns are obtained from Amersham Biosciences (Piscataway, N.J.). […] Other reagents are obtained from Sigma (St. Louis, Mo.).
(§3) The binding of examples of this invention to highly purified tubulin is studied by competitive inhibition methods.
(§4) These solutions are incubated at 24° for 1 hr and then applied to MicroSpin G-50 columns which are centrifuged for 2 min at 3000 rpm in an Eppendorf 5415C microfuge. An aliquot of each column effluent (containing tubulin and bound radioligand) is mixed with scintillation fluid and counted in a liquid scintillation spectrometer. […] Quadruplicates are averaged, and the ability of the competitor to inhibit the binding of the radioligand is expressed as a percentage of control binding in the absence of any competitor.

[2] = test system: highly purified tubulin (tubulin heterodimer); test: Competitive binding test, [3H]colchicine; design: species or system bovine; settings: competitor 100 μM, [3H]colchicine 50 nM, percent of binding to control without competitor
Procedure: as §2, §3, §4

KB cells = test: MTS cytotoxicity test with KB cells; format: cell-based, human; settings: mean of 2 experiments
Excerpt: (§5) Human cancer cell lines, unless otherwise noted, are obtained from the American Type Culture Collection (Rockville, Md.). The following drug-sensitive parental cell lines, and their derived drug-resistant counterparts, are obtained from the originators as listed: (a) S1 (parental line from a subclone of human colon carcinoma line LS174T) and derived S1-M1-3.2 (herein called S1-M1) which expresses the MXR drug transporter protein, are provided by Dr. L. Greenberger, Wyeth Research (Rabindran, S. K., He, H., Singh, M., Brown, E., Collins, K. I., Annable, T., and Greenberger, L. M. Reversal of a novel multidrug resistance mechanism in human colon carcinoma cells by fumitremorgin C. Cancer Res., 58: 5850-5858, 1998); (b) parental HL-60 human promyelocytic leukemia line and derived HL-60/ADR, which expresses the MRP1 drug transporter protein, are provided by Dr. M. Center, University of Kansas (McGrath, T., and Center, M. S. Adriamycin resistance in HL60 cells in the absence of detectable P-glycoprotein. Biochem. Biophys. […] J. Biol. Chem., 261: 7762-7770, 1986) via Dr. L. Greenberger, Wyeth Research.
as §1
(§6) On day 2, compounds for test are diluted and added to wells. Compounds are dissolved in DMSO at 10 mg/mL. For each compound, nine serial 2-fold dilutions are prepared in DMSO. Ten μL of each dilution in DMSO are transferred to 100 μL of medium, mixed well, and then 5 μL of this dilution are transferred in quadruplicate to wells containing cells. […] Plates are returned to the incubator for three days. At the time of drug addition to the experimental plates, the MTS assay is run on the “time 0” plate. This produces the “time 0 MTS value” which is related to the number of viable cells per well at the time of drug addition.
(§7) After three days of culture with test compounds (day 5 overall), the MTS assay is done on all wells of the experimental plates. The absorbance values of the quadruplicate sample wells are averaged and divided by the average of the “time 0” values. […] The nine values for each compound are plotted against concentration, and the concentration that produces a relative color yield half way between the maximum and minimum is taken as the IC50 value.

KB-8-5 cells = test: MTS cytotoxicity test with KB-8-5 cells (moderate P-glycoprotein); format: cell-based, human; settings: KB 8.5 cells, mean of 2 experiments
Excerpt: as §5, §1, §6, §7

KB-V1 cells = test: MTS cytotoxicity test with KB-V1 cells (very high P-glycoprotein); format: cell-based, human; settings: for IC50: KB VI cells, mean of 2 experiments
Excerpt: as §5, §1, §6, §7

HL-60 cells = test: MTS cytotoxicity test with HL-60 cells; format: cell-based, human; settings: mean of 2 experiments
Excerpt: as §5, §1, §6, §7
(§8) HL-60/ADR cells overexpress the multidrug resistance protein MRP1 which mediates resistance to some chemotherapeutics (Gottesman, M. M., Fojo, T., and Bates, S. E. Multidrug resistance in cancer: role of ATP-dependent transporters. Nature Rev. Cancer, 2: 48-58, 2002). The IC50 values of representative examples of this invention, as well as reference compounds, on HL-60/ADR are compared to values on the sensitive parental HL-60 line.

HL-60/ADR cells = test: MTS cytotoxicity test with HL-60/ADR cells (MRP1); format: cell-based, human; settings: for IC50: HL-60/ADR cells, mean of 2 experiments; for Ratio: IC50 on HL-60/ADR cells/IC50 on HL-60 cells
Excerpt: as §5, §1, §6, §7, §8

S1 cells = test: MTS cytotoxicity test with S1 cells; format: cell-based, human; settings: mean of 2 experiments
Excerpt: as §5, §1, §6, §7
as §8, with “S1-M1” for “HL-60/ADR”, “MXR transporter” for “multidrug resistance protein MRP1”, “Miltidrug” for “Multidrug”, “S1” for “HL-60”

S1-M1 cells = test: MTS cytotoxicity test with S1-M1 cells (MXR); format: cell-based, human; settings: for IC50: S1-M1 cells, mean of 2 experiments; for Ratio: IC50 on S1-M1 cells/IC50 on S1 cells
Excerpt: as §5, §1, §6, §7
as §8, with “S1-M1” for “HL-60/ADR”, “MXR transporter” for “multidrug resistance protein MRP1”, “Miltidrug” for “Multidrug”, “S1” for “HL-60”

MAP-rich tubulin = test: Tubulin polymerization test with MAP-rich tubulin; format: biochemical, bovine; settings: 0.3 μM compound, mean A340 at 20 min, fold enhancement over control
Procedure: as §2
MAP-rich tubulin is dissolved in ice-cold PEM buffer containing 1 mM GTP (GPEM buffer) at a concentration of 1.3 mg/mL. The solution is centrifuged at top speed in an Eppendorf model 5415C microcentrifuge (Brinkmann Instruments, Westbury, N.Y.) for 10 min at 4° immediately before use. The tubulin solution is added to wells of a ½-area 96-well plate (Costar No. 3696, Corning, Inc., Corning, N.Y.) already containing the compounds of interest. Each compound is tested in duplicate at a final concentration of 0.3 μM in a volume of 110 μL per well. The final DMSO concentration in all wells is 0.3%. Control reactions, which receive compound solvent only, are done in quadruplicate. The plate is put in a SpectraMax Plus plate reader (Molecular Devices Corp. Sunnyvale, Calif.) thermostated at 24° and the absorbance of each well at 340 nm, a measure of the appearance of turbidity due to tubulin polymer formation, is determined every minute for 60 minutes. The absorbance at time 0 for each well is subtracted from each of the subsequent absorbance readings for that well, and then the duplicates are averaged.

With `CN(C#N)c1nc(Cl)c(-c2c(F)cc(F)cc2F)c(NCC(F)(F)F)n1` [Example 1, 4-Chloro-6-[(2,2,2-trifluoroethyl)amino]-5-(2,4,6-trifluorophenyl)pyrimidin-2-yl(methyl)cyanamide] the IC50 (COLO 205 cells; Homo sapiens, 72 h) was 214 nM, the “[3H]Vinblastine binding, Mean” value [1] was 30 % of control and the “[3H]Colchicine binding, Mean” value [2] was 47 % of control.
`Fc1cc(F)c(-c2c(Cl)nc(-n3ccnc3)nc2NCC(F)(F)F)c(F)c1` [Example 15, 6-Chloro-2-(1H-imidazol-1-yl)-N-(2,2,2-trifluoroethyl)-5-(2,4,6-trifluorophenyl)pyrimidin-4-amine] showed an IC50 (COLO 205 cells; Homo sapiens, 72 h) of 3030 nM and a melting point of 168 to 170 °C.
`CN(C)CCCOc1cc(F)c(-c2c(Cl)nc(N(C)C#N)nc2NCC(F)(F)F)c(F)c1` [Example 19, 4-Chloro-5-{4-[3-(dimethylamino)propoxy]-2,6-difluorophenyl}-6-[(2,2,2-trifluoroethyl)amino]pyrimidin-2-yl(methyl)cyanamide] showed an IC50 (COLO 205 cells; Homo sapiens, 72 h) of 52 nM, an IC50 (KB cells; Homo sapiens) of 63 nM and an IC50 (KB-8-5 cells; Homo sapiens) of 69 nM. It also gave an IC50 (KB-V1 cells; Homo sapiens, KB-V1) of 176 nM, an IC50 (HL-60 cells; Homo sapiens) of 66 nM and an IC50 (HL-60/ADR cells; Homo sapiens, HL60/ADR) of 60 nM. It also gave a Ratio (HL-60/ADR cells) of 0.9, an IC50 (S1 cells; Homo sapiens) of 88 nM and an IC50 (S1-M1 cells; Homo sapiens) of 88 nM. The Ratio (S1-M1 cells) was 1.0, the “[3H]Vinblastine binding, Mean” value [1] was 22 % of control and the “[3H]Colchicine binding, Mean” value [2] was 116 % of control.
`CN(C)CCCOc1cc(F)c(-c2c(Cl)nc(-n3ccnc3)nc2NCC(F)(F)F)c(F)c1` [Example 31, 6-Chloro-5-{4-[3-(dimethylamino)propoxy]-2,6-difluorophenyl}-2-(1H-imidazol-1-yl)-N-(2,2,2-trifluoroethyl)pyrimidin-4-amine] gave an IC50 (COLO 205 cells; Homo sapiens, 72 h) of 682 nM and a melting point of 47 to 49 °C.
In the case of `CNCCCOc1cc(F)c(-c2c(Cl)nc(-c3cnccn3)nc2C2CCCCCC2)c(F)c1.O=C(O)C(F)(F)F` [Example 33a, N-{3-[4-(4-Chloro-6-cycloheptyl-2-pyrazin-2-ylpyrimidin-5-yl)-3,5-difluorophenoxy]propyl}-N-methylamine trifluoroacetic acide salt], the IC50 (COLO 205 cells) is reported as 8.2 nM, the IC50 (KB cells) is reported as 6.8 nM and the IC50 (KB-8-5 cells) is reported as 7.5 nM. The “Ratio VI/KB” value (KB-V1 cells; IC50 on KB VI cells/IC50 on KB cells) was 13, the IC50 (KB-V1 cells) was 91 nM and the “recognition by P-glycoprotein” value (KB-V1 cells; inferred from change in IC50 KB-V1 vs KB) was “show recognition by P-glycoprotein, but much less than that shown by paclitaxel and vincristine”. The IC50 (HL-60 cells) was 6.9 nM, the IC50 (HL-60/ADR cells) was 6.1 nM and the Ratio (HL-60/ADR cells) was 0.9. It also gave an IC50 (S1 cells) of 8.5 nM, a Ratio (S1-M1 cells) of 1.4 and an IC50 (S1-M1 cells) of 12 nM. For the same compound, the “A340 Compound / A340 Control” value (MAP-rich tubulin) was 0.5.
